Test results: patent publication US20230139171A1 (SITA Information Networking Computing UK Limited, priority 2019, published 2023)

Key:
Type in all cases: cell-based
[1] = biological target: T1, human TLR8 (Homo sapiens, UniProt Q9NR97); test: TLR8 inhibition reporter assay (HEK-Blue cells, SEAP reporter, R848 stimulation); conditions: HEK-Blue cells overexpressing human TLR8, SEAP reporter, R848 15.9 μM; read-out: TLR8 IC50
T1 construct: host or cells: HEK-Blue cells
T1 sequence (Q9NR97 27-1041): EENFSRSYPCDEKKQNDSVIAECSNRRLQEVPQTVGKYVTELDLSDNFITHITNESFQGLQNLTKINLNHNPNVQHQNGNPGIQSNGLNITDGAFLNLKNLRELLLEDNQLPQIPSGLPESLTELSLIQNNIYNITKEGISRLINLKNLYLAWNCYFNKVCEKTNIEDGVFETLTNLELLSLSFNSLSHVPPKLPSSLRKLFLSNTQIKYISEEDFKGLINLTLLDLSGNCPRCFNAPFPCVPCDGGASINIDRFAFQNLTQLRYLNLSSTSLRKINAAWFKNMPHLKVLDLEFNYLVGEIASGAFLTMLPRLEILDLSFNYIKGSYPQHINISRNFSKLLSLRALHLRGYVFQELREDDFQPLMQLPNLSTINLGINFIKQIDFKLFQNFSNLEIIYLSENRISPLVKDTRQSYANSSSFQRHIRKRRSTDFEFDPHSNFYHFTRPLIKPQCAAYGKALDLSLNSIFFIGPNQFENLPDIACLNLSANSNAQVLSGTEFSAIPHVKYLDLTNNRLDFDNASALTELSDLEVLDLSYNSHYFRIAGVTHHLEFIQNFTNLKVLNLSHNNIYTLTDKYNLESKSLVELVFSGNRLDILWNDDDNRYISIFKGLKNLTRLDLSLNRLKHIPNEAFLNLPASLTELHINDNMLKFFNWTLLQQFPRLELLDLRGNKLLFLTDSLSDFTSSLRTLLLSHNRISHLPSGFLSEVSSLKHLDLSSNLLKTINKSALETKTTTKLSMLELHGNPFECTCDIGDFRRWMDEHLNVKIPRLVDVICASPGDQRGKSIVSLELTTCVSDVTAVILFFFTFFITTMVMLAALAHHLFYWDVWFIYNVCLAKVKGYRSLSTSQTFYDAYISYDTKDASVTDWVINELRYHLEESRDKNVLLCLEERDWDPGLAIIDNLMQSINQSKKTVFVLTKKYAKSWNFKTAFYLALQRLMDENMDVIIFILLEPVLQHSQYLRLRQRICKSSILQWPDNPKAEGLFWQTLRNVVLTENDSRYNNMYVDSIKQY
In short: (§1)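 Compound treatment: 30 min, RT, 0.05 nM–50 μM final. Agonist: TLR7 gardiquimod 7.5 μM; TLR8 R848 15.9 μM; TLR9 ODN2006 5 nM. Incubation 22 h, 37 °C, 5% CO2. Readout SEAP, HEK-Blue Detection.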

[2] = biological target: T2, human TLR9 (Homo sapiens, UniProt Q9NR96); test: TLR9 inhibition reporter assay (HEK-Blue cells, SEAP reporter, ODN2006 stimulation); conditions: HEK-Blue cells overexpressing human TLR9, SEAP reporter, ODN2006 5 nM
T2 construct: host or cells: HEK-Blue cells
T2 sequence (Q9NR96 26-1032): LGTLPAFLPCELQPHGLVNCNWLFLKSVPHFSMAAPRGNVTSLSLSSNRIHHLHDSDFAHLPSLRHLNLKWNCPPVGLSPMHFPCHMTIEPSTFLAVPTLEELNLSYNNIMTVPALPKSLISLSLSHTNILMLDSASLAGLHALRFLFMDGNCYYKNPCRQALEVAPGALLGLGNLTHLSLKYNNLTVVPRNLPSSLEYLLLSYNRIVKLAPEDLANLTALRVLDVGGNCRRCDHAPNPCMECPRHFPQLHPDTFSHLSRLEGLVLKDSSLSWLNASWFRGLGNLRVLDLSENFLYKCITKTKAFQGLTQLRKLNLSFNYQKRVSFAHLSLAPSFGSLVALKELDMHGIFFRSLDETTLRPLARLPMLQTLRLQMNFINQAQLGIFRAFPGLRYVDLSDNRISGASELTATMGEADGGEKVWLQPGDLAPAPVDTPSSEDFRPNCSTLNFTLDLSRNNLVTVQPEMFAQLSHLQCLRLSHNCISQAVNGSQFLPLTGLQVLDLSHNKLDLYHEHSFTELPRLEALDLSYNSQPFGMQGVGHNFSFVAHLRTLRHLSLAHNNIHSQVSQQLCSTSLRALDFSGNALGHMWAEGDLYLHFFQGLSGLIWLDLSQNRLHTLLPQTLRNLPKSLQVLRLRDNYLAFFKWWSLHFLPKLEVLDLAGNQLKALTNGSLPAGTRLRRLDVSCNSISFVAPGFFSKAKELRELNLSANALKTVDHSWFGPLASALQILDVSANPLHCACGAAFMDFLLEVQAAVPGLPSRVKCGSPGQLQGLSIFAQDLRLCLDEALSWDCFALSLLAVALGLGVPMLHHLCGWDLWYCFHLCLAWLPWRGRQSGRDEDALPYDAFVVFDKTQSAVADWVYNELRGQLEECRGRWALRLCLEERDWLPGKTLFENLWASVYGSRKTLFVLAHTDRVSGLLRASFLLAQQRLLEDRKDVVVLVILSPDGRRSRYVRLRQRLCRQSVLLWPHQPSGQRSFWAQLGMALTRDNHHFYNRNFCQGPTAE
In short: as §1

[3] = biological target: T3, human TLR7 (Homo sapiens, UniProt Q9NYK1); test: TLR7 inhibition reporter assay (HEK-Blue cells, SEAP reporter, gardiquimod stimulation); conditions: HEK-Blue cells overexpressing human TLR7, SEAP reporter, gardiquimod 7.5 μM; read-out: TLR7 IC50
T3 construct: host or cells: HEK-Blue cells
T3 sequence (Q9NYK1 27-1049): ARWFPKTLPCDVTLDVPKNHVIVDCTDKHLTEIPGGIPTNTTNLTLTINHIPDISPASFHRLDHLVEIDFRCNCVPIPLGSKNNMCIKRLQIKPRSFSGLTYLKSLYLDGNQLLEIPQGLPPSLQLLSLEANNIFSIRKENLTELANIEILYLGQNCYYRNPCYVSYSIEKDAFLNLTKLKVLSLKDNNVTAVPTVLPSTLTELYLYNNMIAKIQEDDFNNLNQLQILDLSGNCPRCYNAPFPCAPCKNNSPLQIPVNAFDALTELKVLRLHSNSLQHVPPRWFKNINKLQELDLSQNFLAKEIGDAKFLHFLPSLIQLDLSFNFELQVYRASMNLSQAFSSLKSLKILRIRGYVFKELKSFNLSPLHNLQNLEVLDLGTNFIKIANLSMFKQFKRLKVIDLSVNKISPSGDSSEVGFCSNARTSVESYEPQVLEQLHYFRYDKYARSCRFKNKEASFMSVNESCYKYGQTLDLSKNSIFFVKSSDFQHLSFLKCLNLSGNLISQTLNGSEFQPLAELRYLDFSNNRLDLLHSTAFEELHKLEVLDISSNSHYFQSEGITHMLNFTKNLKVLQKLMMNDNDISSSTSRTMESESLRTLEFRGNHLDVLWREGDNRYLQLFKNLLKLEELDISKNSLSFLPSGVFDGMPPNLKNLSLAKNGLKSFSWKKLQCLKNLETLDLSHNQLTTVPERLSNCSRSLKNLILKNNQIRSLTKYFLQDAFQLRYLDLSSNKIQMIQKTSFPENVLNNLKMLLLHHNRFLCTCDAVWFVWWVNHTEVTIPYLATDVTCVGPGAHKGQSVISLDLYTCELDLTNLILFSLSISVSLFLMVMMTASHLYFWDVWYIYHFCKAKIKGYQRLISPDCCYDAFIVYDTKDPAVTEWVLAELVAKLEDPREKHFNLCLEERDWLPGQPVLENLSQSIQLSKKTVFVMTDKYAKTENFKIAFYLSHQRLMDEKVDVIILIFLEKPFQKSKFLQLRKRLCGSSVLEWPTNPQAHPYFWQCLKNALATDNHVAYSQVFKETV
In short: as §1

Row | IC50 [1] | IC50 [2] | IC50 [3] | SMILES
1 | 1.24 nM | 23800 nM | 1.8 nM | Cc1c(-c2[nH]c3sc(C4CCC(NCC(N)=O)CC4)nc3c2C(C)C)cn2ncnc2c1C (stereo not drawn) [Example 210, 2-((4-(5-(7,8-dimethyl-[1,2,4]triazolo[1,5-a]pyridin-6-yl)-6-isopropyl-4H-pyrrolo[3,2-d]thiazol-2-yl)cyclohexyl)amino)acetamide]
2 | 0.58 nM | 14300 nM | 0.79 nM | Cc1c(-c2[nH]c3sc(C4CCC(NCC(N)=O)CC4)nc3c2C(C)C)cn2ncnc2c1C (stereo not drawn) [Example 211, 2-((4-(5-(7,8-dimethyl-[1,2,4]triazolo[1,5-a]pyridin-6-yl)-6-isopropyl-4H-pyrrolo[3,2-d]thiazol-2-yl)cyclohexyl)amino)acetamide]
3 | 0.33 nM | 10800 nM | 1.43 nM | Cc1c(-c2[nH]c3sc(N4CCNCC4)nc3c2C(C)C)cn2ncnc2c1C [Example 278, 5-(7,8-dimethyl-[1,2,4]triazolo[1,5-a]pyridin-6-yl)-6-isopropyl-2-(piperazin-1-yl)-4H-pyrrolo[3,2-d]thiazole]
4 | 1.08 nM | 23900 nM | 11 nM | Cc1c(-c2[nH]c3sc(N4CCNCC4)nc3c2C(C)C)cn(C)c(=O)c1C [Example 279, 5-(6-isopropyl-2-(piperazin-1-yl)-4H-pyrrolo[3,2-d]thiazol-5-yl)-1,3,4-trimethylpyridin-2(1H)-one]
5 | 0.73 nM | 4960 nM | 1.26 nM | Cc1c(-c2[nH]c3sc(N4CCN(C(=O)CN(C)C)CC4)nc3c2C(C)C)cn2ncnc2c1C [Example 280, 1-(4-(5-(7,8-dimethyl-[1,2,4]triazolo[1,5-a]pyridin-6-yl)-6-isopropyl-4H-pyrrolo[3,2-d]thiazol-2-yl)piperazin-1-yl)-2-(dimethylamino)ethan-1-one]
6 | 0.45 nM | 42600 nM | 9.49 nM | Cc1c(-c2[nH]c3sc(N4CCN(CC(C)(C)O)CC4)nc3c2C(C)C)cn2ncnc2c1C [Example 281, 1-(4-(5-(7,8-dimethyl-[1,2,4]triazolo[1,5-a]pyridin-6-yl)-6-isopropyl-4H-pyrrolo[3,2-d]thiazol-2-yl)piperazin-1-yl)-2-methylpropan-2-ol]
7 | 0.54 nM | 29200 nM | 13.3 nM | Cc1c(-c2[nH]c3sc(N4CCN(C5CCOCC5)CC4)nc3c2C(C)C)cn2ncnc2c1C [Example 287, 5-(7,8-dimethyl-[1,2,4]triazolo[1,5-a]pyridin-6-yl)-6-isopropyl-2-(4-(tetrahydro-2H-pyran-4-yl)piperazin-1-yl)-4H-pyrrolo[3,2-d]thiazole]
8 | 0.52 nM | 14200 nM | 15.2 nM | Cc1c(-c2[nH]c3sc(N4CCN(C(C)C)CC4)nc3c2C(C)C)cn2ncnc2c1C [Example 288, 5-(7,8-dimethyl-[1,2,4]triazolo[1,5-a]pyridin-6-yl)-6-isopropyl-2-(4-isopropylpiperazin-1-yl)-4H-pyrrolo[3,2-d]thiazole]
9 | 0.97 nM | 19700 nM | 5.19 nM | Cc1c(-c2[nH]c3sc(N4CCN(CC5(C)COC5)CC4)nc3c2C(C)C)cn2ncnc2c1C [Example 289, 5-(7,8-dimethyl-[1,2,4]triazolo[1,5-a]pyridin-6-yl)-6-isopropyl-2-(4-((3-methyloxetan-3-yl)methyl)piperazin-1-yl)-4H-pyrrolo[3,2-d]thiazole]
10 | 1.09 nM | 22100 nM | 8.56 nM | Cc1c(-c2[nH]c3sc(N4CCC(NC5(C)COC5)CC4)nc3c2C(C)C)cn2ncnc2c1C [Example 290, 1-(5-(7,8-dimethyl-[1,2,4]triazolo[1,5-a]pyridin-6-yl)-6-isopropyl-4H-pyrrolo[3,2-d]thiazol-2-yl)-N-(3-methyloxetan-3-yl)piperidin-4-amine]
